# Tests used:
# [1] = target: T1, AsPC-1 cells (Homo sapiens, UniProt P01116, G12D); experiment: Cellular phospho-ERK assay, AsPC-1 cells (KRAS G12D); format: cell-based; details: 2 hours, read-out: AsPC1 pERK IC50
# T1 construct: p-ERK/total ERK AlphaSureFire read-out
# Method in brief: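 Compound was titrated 10-point in 3-fold steps (top 30 μM) on KRAS G12D homozygous pancreatic lines PANC08.13 and AsPC-1 for 2 h at 37 °C. The p-ERK/total ERK ratio was measured by multiplex AlphaLISA SureFire and fitted with a 4-parameter logistic model to give IC50.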
# [2] = target: KRAS WT (Homo sapiens, UniProt P01116); experiment: SOS-catalyzed nucleotide exchange assay, KRAS WT (Procedure A); format: biochemical; details: GNE
# Method in brief: (§1)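 Compounds in 10-point 3-fold series sat 60 min with biotin-KRAS/Bodipy-GDP/Tb-streptavidin complex, then human SOS and 3 mM GTP were added. G13D: 1.25 nM KRAS, no SOS, 30 min. WT and G12D: 1 nM with 40 nM SOS, 60 min. G12C (C51S/C80L/C118S): 3 nM/40 nM, 60 min. Curves fitted from normalised TR-FRET 520/495 ratio.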
# [3] = target: NRAS (Homo sapiens, UniProt P01111); experiment: SOS-catalyzed nucleotide exchange assay, NRAS (Procedure A); format: biochemical; details: GNE
# From the text: (§2) Procedure for SOS-Catalyzed Nucleotide Exchange Assay for KRAS-WT, G12C/D/V, G13D, HRAS, and NRAS (Procedure A)
# (§3) Recombinant KRAS-G12C protein used in this assay has an additional triple mutation (C51S/C80L/C118S). Whereas KRAS-WT, G12D/V, G13D, HRAS and NRAS are in context of their WT protein sequence background. Specifically, the SOS-catalyzed nucleotide exchange assay utilizes a preformed TR-FRET complex containing a specific biotinylated RAS protein (KRAS-WT, G12C/V/D, G13D, HRAS, NRAS; described above) with Bodipy-GDP, and Terbium-streptavidin. Compounds are preincubated with this complex for 60 minutes. Subsequently, recombinant human SOS protein and unlabeled GTP are added to initiate the exchange reaction. Small molecule inhibitors stabilize the Bodipy-GDP complex whereas the untreated protein rapidly exchanges Bodipy-GDP for unlabeled GTP resulting in reduced TR-FRET signal.
# (§4) To assemble the preformed TR-FRET complexes, each biotinylated RAS protein is diluted to 2 μM in an EDTA Buffer (20 mM HEPES pH 7.5, 50 mM sodium chloride, 10 mM EDTA, and 0.01% Tween) and incubated at room temperature for one hour. This mixture is then further diluted to 90 nM in an Assay Buffer (20 mM HEPES pH 7.5, 150 mM sodium chloride, 10 mM magnesium chloride, and 0.005% Tween) containing 15 nM of Terbium-Streptavidin (Invitrogen, catalog #PV3577) and 900 nM of Bodipy-GDP (Invitrogen, catalog #G22360) and incubated at room temperature for six hours. It should be noted that this preformed TR-FRET complex for each of the RAS protein were made ahead of time, aliquoted and stored at −80° C. until the day of the experiment.
# (§5) Each test compound (10 mM stock in DMSO) is diluted in DMSO to make a final-10-point, 3-fold dilution and is acoustically dispensed into a 384-well assay plate (Corning, catalog #3820) using an Echo 550 (Labcyte). Each well of the assay plate receives 3 μL of a specific 3×RAS preformed TR-FRET complex and 3 μL of Assay Buffer and is incubated at room temperature for 60 minutes (preincubation time). Each well then receives 3 μL of 3× recombinant human SOS protein and GTP (Sigma, G8877) in Assay Buffer and is incubated at room temperature for 30 minutes (G13D), 60 minutes (KRAS WT/G12C/D, H/NRAS) or 90 minutes for G12V. The final reaction in each well of 9 μL consists of 3 mM GTP, specific Ras and SOS proteins in the following concentrations: KRAS-G12C/SOS=3 nM/40 nM, KRAS-WT and G12D/SOS=1 nM/40 nM, KRAS-G12V/SOS=1.25 nM/160 nM, KRAS-G13D/SOS=1.25 nM/0 nM, HRAS and NRAS=1.25 nM/40 nM.
# (§6) The time-resolved fluorescence resonance energy transfer (TR-FRET) signal is measured on an Envision (PerkinElmer) plate reader: Excitation filter=340 nm; emission1=495 nm; emission2=520 nm; dichroic mirror=D400/D505; delay time=[…]. The signal of each well is determined as the ratio of the emission at 520 nm to that at 495 nm. Percent effect of each well is determined after normalization to control wells containing DMSO (no effect) or a saturating concentration of inhibitor (max effect). The apparent effect as a function of compound concentration is fit to a four-parameter logistic equation.
# (§7) For Example No. 14, nucleotide exchange assays for KRAS G12D, WT, G12C, and G12V were performed according to Procedure B. All the other compounds were tested according to Procedure A.
# [4] = target: KRAS G12D (Homo sapiens, UniProt P01116, G12D); experiment: SOS-catalyzed nucleotide exchange assay, KRAS G12D (Procedure A); format: biochemical; details: guanine nucleotide exchange (GNE)
# Method in brief: as §1
# [5] = target: KRAS G12V (Homo sapiens, UniProt P01116, G12V); experiment: SOS-catalyzed nucleotide exchange assay, KRAS G12V (Procedure A); format: biochemical; details: GNE
# Method in brief: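 Biotinylated KRAS G12V was loaded with Bodipy-GDP alongside Terbium-streptavidin to form a TR-FRET complex, which was preincubated with compounds for 60 minutes in 384-well plates. Human SOS protein and unlabeled GTP were then added for 90 minutes, giving final concentrations of 1.25 nM KRAS-G12V, 160 nM SOS and 3 mM GTP. The 520/495 nm emission ratio was read on an Envision.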
# [6] = target: KRAS G13D (Homo sapiens, UniProt P01116, G13D); experiment: SOS-catalyzed nucleotide exchange assay, KRAS G13D (Procedure A); format: biochemical; details: GNE
# From the text: as §2, §3, §4, §5, §6, §7
# [7] = target: KRAS G12C (Homo sapiens, UniProt P01116, C118S/C51S/C80L/G12C); experiment: SOS-catalyzed nucleotide exchange assay, KRAS G12C (Procedure A); format: biochemical; details: GNE
# From the text: as §2, §3, §4, §5, §6, §7
# [8] = target: HRAS (Homo sapiens, UniProt P01112); experiment: SOS-catalyzed nucleotide exchange assay, HRAS (Procedure A); format: biochemical; details: GNE
# From the text: as §2, §3, §4, §5, §6, §7
# Chain of KRAS G12C (P01116 with tags, fused parts or gaps isoform P01116-2 G12C/C51S/C80L/C118S): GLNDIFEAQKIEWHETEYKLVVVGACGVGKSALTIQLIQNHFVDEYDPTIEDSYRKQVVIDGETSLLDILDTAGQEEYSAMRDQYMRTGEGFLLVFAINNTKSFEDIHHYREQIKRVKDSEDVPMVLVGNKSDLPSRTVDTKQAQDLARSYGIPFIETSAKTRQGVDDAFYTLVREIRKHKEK
# Chain of KRAS G12V (P01116 with tags, fused parts or gaps isoform P01116-2 G12V): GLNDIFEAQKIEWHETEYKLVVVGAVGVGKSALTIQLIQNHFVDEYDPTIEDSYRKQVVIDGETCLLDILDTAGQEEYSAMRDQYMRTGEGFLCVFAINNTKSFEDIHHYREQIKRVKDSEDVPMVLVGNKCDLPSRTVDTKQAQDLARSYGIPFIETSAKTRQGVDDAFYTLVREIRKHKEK
# T1 sequence (P01116 1-188 isoform P01116-2 G12D): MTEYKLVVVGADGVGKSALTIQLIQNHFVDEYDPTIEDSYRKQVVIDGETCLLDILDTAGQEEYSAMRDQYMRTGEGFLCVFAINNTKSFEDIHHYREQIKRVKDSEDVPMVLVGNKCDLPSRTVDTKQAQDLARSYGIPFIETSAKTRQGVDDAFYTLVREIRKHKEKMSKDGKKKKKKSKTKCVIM
# Chain of NRAS (P01111 with tags, fused parts or gaps): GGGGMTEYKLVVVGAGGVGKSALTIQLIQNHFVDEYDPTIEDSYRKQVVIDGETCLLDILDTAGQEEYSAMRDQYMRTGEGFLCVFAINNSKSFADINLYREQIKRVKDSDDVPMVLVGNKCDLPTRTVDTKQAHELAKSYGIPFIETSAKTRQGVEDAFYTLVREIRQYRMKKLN
# Chain of HRAS (P01112 with tags, fused parts or gaps): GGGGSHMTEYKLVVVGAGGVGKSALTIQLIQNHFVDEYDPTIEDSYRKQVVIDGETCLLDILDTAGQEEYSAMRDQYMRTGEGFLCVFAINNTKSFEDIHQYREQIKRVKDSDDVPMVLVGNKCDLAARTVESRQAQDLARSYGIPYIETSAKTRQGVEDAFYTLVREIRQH
# Chain of KRAS G13D (P01116 with tags, fused parts or gaps isoform P01116-2 G13D): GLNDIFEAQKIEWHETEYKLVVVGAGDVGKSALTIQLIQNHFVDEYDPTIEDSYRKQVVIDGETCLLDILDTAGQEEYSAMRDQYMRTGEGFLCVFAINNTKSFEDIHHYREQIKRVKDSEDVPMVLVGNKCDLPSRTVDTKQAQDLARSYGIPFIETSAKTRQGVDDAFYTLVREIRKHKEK
# Chain of KRAS G12D (P01116 with tags, fused parts or gaps isoform P01116-2 G12D): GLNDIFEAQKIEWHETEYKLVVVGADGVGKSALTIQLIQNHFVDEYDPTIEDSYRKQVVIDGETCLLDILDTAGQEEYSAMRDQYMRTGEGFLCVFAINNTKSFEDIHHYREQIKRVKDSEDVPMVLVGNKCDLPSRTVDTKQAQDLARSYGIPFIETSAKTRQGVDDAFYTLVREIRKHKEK
# Chain of KRAS WT (P01116 with tags, fused parts or gaps isoform P01116-2): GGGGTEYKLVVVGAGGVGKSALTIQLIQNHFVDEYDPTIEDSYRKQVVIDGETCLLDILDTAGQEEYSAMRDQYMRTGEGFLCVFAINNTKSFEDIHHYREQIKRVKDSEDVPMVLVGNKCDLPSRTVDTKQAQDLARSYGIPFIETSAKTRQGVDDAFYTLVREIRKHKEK
IC50 [1],IC50 [2],IC50 [3],IC50 [4],IC50 [5],IC50 [6],IC50 [7],IC50 [8],SMILES
0.296 µM,1.16 µM,> 11.1 µM,0.00805 µM,1.24 µM,0.287 µM,0.412 µM,> 11.1 µM,"F[C@H]1CN2CCC[C@@]2(COc2nc(N3C[C@H]4CC[C@@H](C3)N4)c3c(n2)sc2c(-c4c(C5CC5)c(Cl)cc5[nH]ncc45)nccc23)C1 [Ex-20, 4-((1R,5S)-3,8-diazabicyclo[3.2.1]octan-3-yl)-8-(6-chloro-5-cyclopropyl-1H-indazol-4-yl)-2-(((2R,7aS)-2-fluorotetrahydro-1H-pyrrolizin-7a(5H)-yl)methoxy)pyrido[4′,3′:4,5]thieno[2,3-d]pyrimidine]"
10 µM,> 11.1 µM,> 11.1 µM,2.73 µM,> 11.1 µM,9.11 µM,> 11.1 µM,> 11.1 µM,"Clc1cc2[nH]ncc2c(-c2nccc3c2sc2nc(OCC45CCOC(CO4)C5)nc(N4C[C@H]5CC[C@@H](C4)N5)c23)c1C1CC1 [Ex-22, 2-((2,6-dioxabicy-clo[3.2.1]octan-5-yl)methoxy)-4-((1R,5S)-3,8-diazabicy-clo[3.2.1]octan-3-yl)-8-(6-chloro-5-cyclopropyl-1H-indazol-4-yl)pyrido [4′,3′:4,5]thi-eno[2,3-d]pyrimidine]"
18.4 µM,> 11.1 µM,> 11.1 µM,5.23 µM,> 11.1 µM,> 11.1 µM,> 11.1 µM,> 11.1 µM,"OC1C2CCCC1(COc1nc(N3C[C@H]4CC[C@@H](C3)N4)c3c(n1)sc1c(-c4c(C5CC5)c(Cl)cc5[nH]ncc45)nccc13)CC2 (stereo partly drawn) [Ex-24, 1-(((4-((1R,5S)-3,8-diazabicy-clo[3.2.1]octan-3-yl)-8-(6-chloro-5-cyclopropyl-1H-indazol-4-yl)pyri-do[4′,3′:4,5]thi-eno[2,3-d]pyrimidin-2-yl)oxy)methyl)bi-cyclo[3.2.1]oc-tan-8-ol]"

# The remaining lines, values behind:
SMILES,IC50 [1],IC50 [2],IC50 [3],IC50 [4],IC50 [5],IC50 [6],IC50 [7],IC50 [8]
"CN(C)C[C@@]1(COc2nc(N3C[C@H]4CC[C@@H](C3)N4)c3c(n2)sc2c(-c4c(C5CC5)c(Cl)cc5[nH]ncc45)nccc23)CC1(F)F [Ex-21, 1-((1R)-1-(((4-((1R,5S)-3,8-diazabicy-clo[3.2.1]octan-3-yl)-8-(6-chloro-5-cyclopropyl-1H-indazol-4-yl)pyrido [4′,3′:4,5]thieno [2,3-d]pyrimidin-2-yl)oxy)methyl)-2,2-difluoro-cyclopropyl)-N,N-dimethyl-methanamine]",0.612 µM,2.8 µM,> 11.1 µM,0.00789 µM,5 µM,0.486 µM,0.457 µM,> 11.1 µM
"CC12CC(COc3nc(N4C[C@H]5CC[C@@H](C4)N5)c4c(n3)sc3c(-c5c(C6CC6)c(Cl)cc6[nH]ncc56)nccc34)(CO1)C2 [Ex-23, 4-((1R,5S)-3,8-diazabicy-clo[3.2.1]octan-3-yl)-8-(6-chloro-5-cyclopropyl-1H-indazol-4-yl)-2-(((1R,4r)-1-methyl-2-oxabicy-clo[2.1.1]hex-an-4-yl)methoxy)pyri-do[4′,3′:4,5]thi-eno[2,3-d]pyrimi-dine]",8.11 µM,> 11.1 µM,> 11.1 µM,1.97 µM,> 11.1 µM,> 11.1 µM,> 11.1 µM,> 11.1 µM
"Cc1cc2[nH]ncc2c(-c2nccc3c2sc2nc(OC[C@]4(C#N)C[C@H]4S(C)(=O)=O)nc(N4C[C@H]5CC[C@@H](C4)N5)c23)c1C(F)(F)F [Ex-32, (1R,2R)-1-(((4-((1R,5S)-3,8-diazabicyclo[3.2.1]octan-3-yl)-8-(6-methyl-5-(trifluoromethyl)-1H-indazol-4-yl)pyrido[4′,3′:4,5]thieno[2,3-d]pyrimidin-2-yl)oxy)methyl)-2-(methylsulfonyl)cyclopropane-1-carbonitrile]",> 30 µM,> 11.1 µM,> 11.1 µM,1.02 µM,> 11.1 µM,> 11.1 µM,> 11.1 µM,> 11.1 µM
"Cc1cc2[nH]ncc2c(-c2nccc3c2sc2nc(OCC4(S(C)(=O)=O)CC4)nc(N4C[C@H]5CC[C@@H](C4)N5)c23)c1C(F)(F)F [Ex-33, 4-((1R,5S)-3,8-diazabicyclo[3.2.1]octan-3-yl)-8-(6-methyl-5-(trifluoromethyl)-1H-indazol-4-yl)-2-((1-(methylsulfonyl)cyclopropyl)meth-oxy)pyrido[4′,3′:4,5]thieno[2,3-d]pyrimidine]",20.2 µM,> 11.1 µM,> 11.1 µM,7.97 µM,> 11.1 µM,> 11.1 µM,> 11.1 µM,> 11.1 µM
"Cc1cc2[nH]ncc2c(-c2nccc3c2sc2nc(OCC4(C#N)CCCO4)nc(N4C[C@H]5CC[C@@H](C4)N5)c23)c1C(F)(F)F (stereo partly drawn) [Ex-34, 2-(((4-((1R,5S)-3,8-diazabicyclo[3.2.1]octan-3-yl)-8-(6-methyl-5-(trifluoromethyl)-1H-indazol-4-yl)pyrido[4′,3′:4,5]thieno[2,3-d]pyrimidin-2-yl)oxy)methyl)tetrahydrofuran-2-carbonitrile]",> 30 µM,> 11.1 µM,> 11.1 µM,6.7 µM,> 11.1 µM,> 11.1 µM,> 11.1 µM,> 11.1 µM
"Cc1cc2[nH]ncc2c(-c2nccc3c2sc2nc(OC[C@H]4C[C@H](S(C)(=N)=O)C4)nc(N4C[C@H]5CC[C@@H](C4)N5)c23)c1C(F)(F)F (stereo partly drawn) [Ex-35, (1S)-((1R,3S)-3-(((4-((1R,5S)-3,8-diazabicyclo[3.2.1]octan-3-yl)-8-(6-methyl-5-(trifluoromethyl)-1H-indazol-4-yl)pyrido[4′,3′:4,5]thieno[2,3-d]pyrimidin-2-yl)oxy)methyl)cyclobutyl)(imino) (methyl)-λ^6-sulfanone]",> 30 µM,> 11.1 µM,> 11.1 µM,1.43 µM,> 11.1 µM,> 11.1 µM,> 11.1 µM,> 11.1 µM

# Reference: patent publication US20260347372A1, “SMALL MOLECULE INHIBITORS OF KRAS G12D MUTANT” (MERCK SHARP & DOHME LLC, priority 2023, published 2026)
